The record followed here is EP3150574B1, “AMANTADINE NITRATE COMPOUND HAVING A NEUROPROTECTIVE EFFECT AND PREPARATION AND MEDICAL USE THEREOF” (Guangzhou Magpie Pharmaceuticals Co., Ltd., priority 2014, dated 2015).

Each structure is given as a SMILES string.

By EC50 is commonly meant the concentration that produces a half-maximal response. Lower therefore signals a more potent agent.

For this assay, the system named is primary cerebellum granule cells of rats. Briefly: Protective effects of compounds on primary cerebellum granule cells against glutamate-induced excitotoxic injury (MTT cell viability). It is filed as cell-based. As to conditions: protective effect on rat's nerve cells, pre-protection 2 h, then for 24 h, absorbance at 570 nm.
Procedure: Isolated primary cerebellum granule cells of infant rats were inoculated in 96-well plates with 1.2×10^5/well by using 10% FBS + 25 mM KCl + 2 mM Glutamine + 1% of double-antibody BME medium. After 24 hours, cytarabine with a final concentration of 10 iM was added to inhibit the proliferation of neurogliocyte cells. After the day 4, glucose with the final concentration of 5 mM was added every four days to complement energy metabolism and water evaporation of cells. The materials were placed in a cell incubator (37 °C, 5% CO2) to be cultured for 10 days. […] After pre-protection for 2 h, 200 iM of glutamate was added to induce cell damage for 24h, and then MTT was added to culture for 4 h. The supernatant fraction was sucked, and 150 iL of DMSO was added to each well for dissolving. After blending with shaking, the light absorption values under 570 nm wavelength was measured with a microplate reader, and the viability of cells was calculated. Cell viability (%) = absorbance of different groups / absorbance of the normal control group × 100%.
`CC(CO[N+](=O)[O-])CC12CC3CC(N)(C1)CC(CC(C)CO[N+](=O)[O-])(C3)C2` (stereo not shown) [NM-012] had a 50% effective concentration (EC50) of 9.3 µM.
`CCC12CC3CC(N)(C1)CC(CCCO[N+](=O)[O-])(C3)C2` (stereo not shown) [NM-005] gave an EC50 of 6.06 µM.
Compound `CCC12CC3CC(N)(C1)CC(CO[N+](=O)[O-])(C3)C2` (stereo not shown) [NM-004] yielded an EC50 of 8.12 µM.
On to `NC12CC3CC(CCO[N+](=O)[O-])(C1)CC(CCO[N+](=O)[O-])(C3)C2` [NM-009], for which the EC50 is 5.2 µM.
